Legend:
southern crabgrass [1] = assay: Test Example 5: herbicidal effect by foliage application, plastic box (Table 20, symbol F); assay type: in vivo, southern crabgrass (Digitaria ciliaris); details: amount of applied herbicide 320 g/ha; foliage application after 14-day growth; evaluated three weeks after application
Outline: (§1)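 Plants sown in sterilized diluvial soil and grown 14 days in a greenhouse at 25° C to 30° C, then sprayed on the foliage with the compound's emulsion diluted in water to a predetermined herbicide amount. Injury to weeds and crops scored three weeks after application on a visual rating scale.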

redroot pigweed [2] = assay: Test Example 4: herbicidal effect by soil treatment (Table 19, symbol N); assay type: in vivo, redroot pigweed (Amaranthus retroflexus); details: amount of applied herbicide 320 g/ha
Outline: (§2)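 Three weeks of greenhouse growth at 25° C. to 30° C. followed a uniform surface spray of water-diluted emulsion at a predetermined herbicide amount. Seeds had been sown beforehand under about 1.5 cm of sterilized diluvial soil. Grading followed criteria set out in an earlier test.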

green foxtail [3] = assay: Test Example 4: herbicidal effect by soil treatment (Table 19, symbol G); assay type: in vivo, green foxtail (Setaria viridis); details: amount of applied herbicide 320 g/ha
Outline: as §2

rice flat sedge = assay: Test Example 3: herbicidal effect by foliage application, Wagner pot (Table 18, symbol E); assay type: in vivo, rice flat sedge (Cyperus iria); details: 320 g/ha
Outline: (§3)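 Plants were sown in alluvial soil held under 0.1–0.5 cm standing water and grown 14 days in a greenhouse at 25–30 °C. An emulsifiable formulation, water-diluted to the set dose, was then sprayed onto the foliage, and effects were scored three weeks later using previously defined criteria.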

Italian ryegrass [4] = assay: Test Example 5: herbicidal effect by foliage application, plastic box (Table 20, symbol K); assay type: in vivo, Italian ryegrass (Lolium multiflorum); details: amount of applied herbicide 320 g/ha; foliage application after 14-day growth; evaluated three weeks after application
Outline: as §1

blackgrass [5] = assay: Test Example 4: herbicidal effect by soil treatment (Table 19, symbol J); assay type: in vivo, blackgrass (Alopecurus myosuroides); details: amount of applied herbicide 320 g/ha
Outline: as §2

chickweed [6] = assay: Test Example 5: herbicidal effect by foliage application, plastic box (Table 20, symbol P); assay type: in vivo, common chickweed (Stellaria media); details: amount of applied herbicide 320 g/ha; foliage application after 14-day growth; evaluated three weeks after application
Outline: as §1

velvetleaf [7] = assay: Test Example 5: herbicidal effect by foliage application, plastic box (Table 20, symbol M); assay type: in vivo, velvetleaf (Abutilon theophrasti); details: amount of applied herbicide 320 g/ha; foliage application after 14-day growth; evaluated three weeks after application
Outline: as §1

barnyard grass [8] = assay: Test Example 4: herbicidal effect by soil treatment (Table 19, symbol H); assay type: in vivo, barnyard grass (Echinochloa crus-galli); details: amount of applied herbicide 320 g/ha
Outline: as §2

velvetleaf [9] = assay: Test Example 4: herbicidal effect by soil treatment (Table 19, symbol M); assay type: in vivo, velvetleaf (Abutilon theophrasti); details: amount of applied herbicide 320 g/ha
Outline: as §2

false cleavers = assay: Test Example 5: herbicidal effect by foliage application, plastic box (Table 20, symbol Q); assay type: in vivo, false cleavers (Galium spurium); details: amount of applied herbicide 320 g/ha; foliage application after 14-day growth; evaluated three weeks after application
Outline: as §1

lambsquarters [10] = assay: Test Example 5: herbicidal effect by foliage application, plastic box (Table 20, symbol O); assay type: in vivo, lambsquarters (Chenopodium album); details: amount of applied herbicide 320 g/ha; foliage application after 14-day growth; evaluated three weeks after application
Outline: as §1

southern crabgrass [11] = assay: Test Example 4: herbicidal effect by soil treatment (Table 19, symbol F); assay type: in vivo, southern crabgrass (Digitaria ciliaris); details: amount of applied herbicide 320 g/ha
Outline: as §2

persian speedwell [12] = assay: Test Example 5: herbicidal effect by foliage application, plastic box (Table 20, symbol R); assay type: in vivo, Persian speedwell (Veronica persica); details: amount of applied herbicide 320 g/ha; foliage application after 14-day growth; evaluated three weeks after application
Outline: as §1

lambsquarters [13] = assay: Test Example 4: herbicidal effect by soil treatment (Table 19, symbol O); assay type: in vivo, lambsquarters (Chenopodium album); details: amount of applied herbicide 320 g/ha
Outline: as §2

windgrass [14] = assay: Test Example 4: herbicidal effect by soil treatment (Table 19, symbol L); assay type: in vivo, windgrass (Apera spica-venti); details: amount of applied herbicide 320 g/ha
Outline: as §2

redroot pigweed [15] = assay: Test Example 5: herbicidal effect by foliage application, plastic box (Table 20, symbol N); assay type: in vivo, redroot pigweed (Amaranthus retroflexus); details: amount of applied herbicide 320 g/ha; foliage application after 14-day growth; evaluated three weeks after application
Outline: as §1

chickweed [16] = assay: Test Example 4: herbicidal effect by soil treatment (Table 19, symbol P); assay type: in vivo, common chickweed (Stellaria media); details: amount of applied herbicide 320 g/ha
Outline: as §2

green foxtail [17] = assay: Test Example 5: herbicidal effect by foliage application, plastic box (Table 20, symbol G); assay type: in vivo, green foxtail (Setaria viridis); details: amount of applied herbicide 320 g/ha; foliage application after 14-day growth; evaluated three weeks after application
Outline: as §1

persian speedwell [18] = assay: Test Example 4: herbicidal effect by soil treatment (Table 19, symbol R); assay type: in vivo, Persian speedwell (Veronica persica); details: amount of applied herbicide 320 g/ha
Outline: as §2

blackgrass [19] = assay: Test Example 5: herbicidal effect by foliage application, plastic box (Table 20, symbol J); assay type: in vivo, blackgrass (Alopecurus myosuroides); details: amount of applied herbicide 320 g/ha; foliage application after 14-day growth; evaluated three weeks after application
Outline: as §1

barnyard grass [20] = assay: Test Example 3: herbicidal effect by foliage application, Wagner pot (Table 18, symbol H); assay type: in vivo, barnyard grass (Echinochloa crus-galli); details: 320 g/ha
Outline: as §3

windgrass [21] = assay: Test Example 5: herbicidal effect by foliage application, plastic box (Table 20, symbol L); assay type: in vivo, windgrass (Apera spica-venti); details: amount of applied herbicide 320 g/ha; foliage application after 14-day growth; evaluated three weeks after application
Outline: as §1

barnyard grass [22] = assay: Test Example 5: herbicidal effect by foliage application, plastic box (Table 20, symbol H); assay type: in vivo, barnyard grass (Echinochloa crus-galli); details: amount of applied herbicide 320 g/ha; foliage application after 14-day growth; evaluated three weeks after application
Outline: as §1

Italian ryegrass [23] = assay: Test Example 4: herbicidal effect by soil treatment (Table 19, symbol K); assay type: in vivo, Italian ryegrass (Lolium multiflorum); details: amount of applied herbicide 320 g/ha
Outline: as §2

wild oat [24] = assay: Test Example 5: herbicidal effect by foliage application, plastic box (Table 20, symbol I); assay type: in vivo, wild oat (Avena fatua); details: amount of applied herbicide 320 g/ha; foliage application after 14-day growth; evaluated three weeks after application
Outline: as §1

Chinese sprangletop = assay: Test Example 3: herbicidal effect by foliage application, Wagner pot (Table 18, symbol D); assay type: in vivo, chinese sprangletop (Leptochloa chinensis); details: 320 g/ha
Outline: as §3

wild oat [25] = assay: Test Example 4: herbicidal effect by soil treatment (Table 19, symbol I); assay type: in vivo, wild oat (Avena fatua); details: amount of applied herbicide 320 g/ha
Outline: as §2

In the case of `CCCC(=O)Oc1c(C)nn(C)c(=O)c1-c1c(-c2ccc(F)cc2)sc2cc(F)c(F)cc12` [5-002], the “Herbicidal effect by foliage application, F: southern crabgrass” value (southern crabgrass [1]) is reported as 5 (Herbicidal rate of 90% or more (almost completely withered)), the “N: redroot pigweed, herbicidal effect grade” value (redroot pigweed [2]) is reported as 5 (Herbicidal rate of 90% or more (almost completely withered)) and the “G: green foxtail, herbicidal effect grade” value (green foxtail [3]) is reported as 4 (Herbicidal rate of 70% or more and less than 90%). For the same compound, the “herbicidal effect on rice flat sedge (E)” value (rice flat sedge) was 0 (Herbicidal rate of 5% or less (almost no effect)), the “Herbicidal effect by foliage application, K: Italian ryegrass” value (Italian ryegrass [4]) was 5 (Herbicidal rate of 90% or more (almost completely withered)) and the “J: blackgrass, herbicidal effect grade” value (blackgrass [5]) was 2 (Herbicidal rate of 20% or more and less than 40%). For the same compound, the “Herbicidal effect by foliage application, P: chickweed” value (chickweed [6]) was 5 (Herbicidal rate of 90% or more (almost completely withered)), the “Herbicidal effect by foliage application, M: velvetleaf” value (velvetleaf [7]) was 5 (Herbicidal rate of 90% or more (almost completely withered)) and the “H: barnyard grass, herbicidal effect grade” value (barnyard grass [8]) was 3 (Herbicidal rate of 40% or more and less than 70%). The “M: velvetleaf, herbicidal effect grade” value (velvetleaf [9]) was 3 (Herbicidal rate of 40% or more and less than 70%), the “Herbicidal effect by foliage application, Q: false cleavers” value (false cleavers) was 5 (Herbicidal rate of 90% or more (almost completely withered)) and the “Herbicidal effect by foliage application, O: lambsquarters” value (lambsquarters [10]) was 5 (Herbicidal rate of 90% or more (almost completely withered)). The “F: southern crabgrass, herbicidal effect grade” value (southern crabgrass [11]) was 0 (Herbicidal rate of 5% or less (almost no effect)), the “Herbicidal effect by foliage application, R: persian speedwell” value (persian speedwell [12]) was 5 (Herbicidal rate of 90% or more (almost completely withered)) and the “O: lambsquarters, herbicidal effect grade” value (lambsquarters [13]) was 5 (Herbicidal rate of 90% or more (almost completely withered)). For the same compound, the “L: windgrass, herbicidal effect grade” value (windgrass [14]) was 5 (Herbicidal rate of 90% or more (almost completely withered)), the “Herbicidal effect by foliage application, N: redroot pigweed” value (redroot pigweed [15]) was 5 (Herbicidal rate of 90% or more (almost completely withered)) and the “P: chickweed, herbicidal effect grade” value (chickweed [16]) was 4 (Herbicidal rate of 70% or more and less than 90%). For the same compound, the “Herbicidal effect by foliage application, G: green foxtail” value (green foxtail [17]) was 5 (Herbicidal rate of 90% or more (almost completely withered)), the “R: persian speedwell, herbicidal effect grade” value (persian speedwell [18]) was 5 (Herbicidal rate of 90% or more (almost completely withered)) and the “Herbicidal effect by foliage application, J: blackgrass” value (blackgrass [19]) was 4 (Herbicidal rate of 70% or more and less than 90%). The “herbicidal effect on barnyard grass (H)” value (barnyard grass [20]) was 4 (Herbicidal rate of 70% or more and less than 90%), the “Herbicidal effect by foliage application, L: windgrass” value (windgrass [21]) was 5 (Herbicidal rate of 90% or more (almost completely withered)) and the “Herbicidal effect by foliage application, H: barnyard grass” value (barnyard grass [22]) was 4 (Herbicidal rate of 70% or more and less than 90%). For the same compound, the “K: Italian ryegrass, herbicidal effect grade” value (Italian ryegrass [23]) was 5 (Herbicidal rate of 90% or more (almost completely withered)), the “Herbicidal effect by foliage application, I: wild oat” value (wild oat [24]) was 4 (Herbicidal rate of 70% or more and less than 90%) and the “herbicidal effect on Chinese sprangletop (D)” value (Chinese sprangletop) was 3 (Herbicidal rate of 40% or more and less than 70%). For the same compound, the “I: wild oat, herbicidal effect grade” value (wild oat [25]) was 3 (Herbicidal rate of 40% or more and less than 70%).

Source: patent US20230085307A1, “PYRIDAZINONE COMPOUND AND HERBICIDE” (NISSAN CHEMICAL CORPORATION, priority 2019, published 2023)
